Here are results for four molecules from ChEMBL document CHEMBL4028827, “Discovery of indazole aldosterone synthase (CYP11B2) inhibitors as potential treatments for hypertension” (Bioorg Med Chem Lett, 2017).

One assay deals with Cytochrome P450 3A4 (Homo sapiens, UniProt P08684). Briefly: Inhibition of hepatic CYP3A4 (unknown origin). Type of assay: ADME.
Assay [1] concerns the target T1, Cytochrome P450 11B1, mitochondrial (Homo sapiens, UniProt P15538).
T1 sequence (P15538 whole entry): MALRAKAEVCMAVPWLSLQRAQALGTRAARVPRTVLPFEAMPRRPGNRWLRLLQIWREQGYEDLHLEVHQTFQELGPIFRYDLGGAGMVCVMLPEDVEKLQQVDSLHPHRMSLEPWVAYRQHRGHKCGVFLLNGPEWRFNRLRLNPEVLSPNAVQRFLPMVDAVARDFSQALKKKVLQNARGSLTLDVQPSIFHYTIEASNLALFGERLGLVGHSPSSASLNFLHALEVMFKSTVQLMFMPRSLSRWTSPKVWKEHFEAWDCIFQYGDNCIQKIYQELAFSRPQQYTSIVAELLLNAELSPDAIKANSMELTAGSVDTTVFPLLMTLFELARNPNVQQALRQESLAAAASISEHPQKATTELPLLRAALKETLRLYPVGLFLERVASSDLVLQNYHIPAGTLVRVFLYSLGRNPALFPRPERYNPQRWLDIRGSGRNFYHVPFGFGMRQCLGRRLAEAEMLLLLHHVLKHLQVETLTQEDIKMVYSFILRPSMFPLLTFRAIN
In words: Inhibition of human CYP11B1-8C7 expressed in Chinese hamster V79 cells using 11-deoxycortisol as substrate preincubated for 1 hr followed by substrate addition measured for 3 hrs by HTRF assay. Type of assay: ADME, cell-based. (In general: Time-resolved FRET reads energy transfer from a long-lived donor to a nearby acceptor.)

In a further assay the target is T2, Aromatase (Homo sapiens, UniProt P11511).
T2 sequence (P11511 whole entry): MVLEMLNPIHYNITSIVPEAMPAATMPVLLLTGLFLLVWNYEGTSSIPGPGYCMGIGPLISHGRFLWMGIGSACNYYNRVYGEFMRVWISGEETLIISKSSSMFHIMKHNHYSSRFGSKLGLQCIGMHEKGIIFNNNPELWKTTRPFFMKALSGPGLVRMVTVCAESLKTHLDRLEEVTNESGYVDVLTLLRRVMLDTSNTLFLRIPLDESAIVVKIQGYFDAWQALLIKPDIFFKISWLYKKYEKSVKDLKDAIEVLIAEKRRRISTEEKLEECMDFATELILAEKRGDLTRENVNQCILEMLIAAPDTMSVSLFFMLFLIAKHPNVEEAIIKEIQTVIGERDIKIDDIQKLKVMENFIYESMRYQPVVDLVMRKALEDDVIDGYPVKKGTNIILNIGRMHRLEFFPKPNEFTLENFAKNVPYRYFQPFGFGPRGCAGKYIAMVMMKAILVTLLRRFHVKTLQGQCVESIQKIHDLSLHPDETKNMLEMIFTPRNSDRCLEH
In words: Inhibition of CYP19 (unknown origin) using MFC as substrate and NADPH as cofactor preincubated for 10 mins with cofactor followed by substrate/enzyme addition measured after 30 mins.

The target in assay [2] is T3, Cytochrome P450 11B2, mitochondrial (Rattus norvegicus, UniProt P30099).
T3 sequence (P30099 whole entry): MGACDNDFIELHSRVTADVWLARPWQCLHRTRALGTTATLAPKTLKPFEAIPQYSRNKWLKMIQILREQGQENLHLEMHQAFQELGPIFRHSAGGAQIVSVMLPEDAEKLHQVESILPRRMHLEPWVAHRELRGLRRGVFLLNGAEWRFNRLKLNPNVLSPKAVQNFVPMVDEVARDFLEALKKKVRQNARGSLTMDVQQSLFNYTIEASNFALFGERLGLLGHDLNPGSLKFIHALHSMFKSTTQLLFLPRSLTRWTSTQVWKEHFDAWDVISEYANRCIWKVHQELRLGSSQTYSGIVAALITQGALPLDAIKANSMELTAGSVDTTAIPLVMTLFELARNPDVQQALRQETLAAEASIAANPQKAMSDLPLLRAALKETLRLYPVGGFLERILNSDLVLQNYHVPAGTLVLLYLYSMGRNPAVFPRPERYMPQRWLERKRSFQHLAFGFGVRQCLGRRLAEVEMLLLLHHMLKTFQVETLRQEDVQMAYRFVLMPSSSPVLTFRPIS
Briefly: Inhibition of rat CYP11B2-1F4 expressed in Chinese hamster V79 cells using 11-deoxycorticosterone as substrate preincubated for 1 hr followed by substrate addition measured for 3 hrs by HTRF assay. Format: cell-based.

The target of assay [3] is T4, Steroid 17-alpha-hydroxylase/17,20 lyase (Homo sapiens, UniProt P05093).
T4 sequence (P05093 whole entry): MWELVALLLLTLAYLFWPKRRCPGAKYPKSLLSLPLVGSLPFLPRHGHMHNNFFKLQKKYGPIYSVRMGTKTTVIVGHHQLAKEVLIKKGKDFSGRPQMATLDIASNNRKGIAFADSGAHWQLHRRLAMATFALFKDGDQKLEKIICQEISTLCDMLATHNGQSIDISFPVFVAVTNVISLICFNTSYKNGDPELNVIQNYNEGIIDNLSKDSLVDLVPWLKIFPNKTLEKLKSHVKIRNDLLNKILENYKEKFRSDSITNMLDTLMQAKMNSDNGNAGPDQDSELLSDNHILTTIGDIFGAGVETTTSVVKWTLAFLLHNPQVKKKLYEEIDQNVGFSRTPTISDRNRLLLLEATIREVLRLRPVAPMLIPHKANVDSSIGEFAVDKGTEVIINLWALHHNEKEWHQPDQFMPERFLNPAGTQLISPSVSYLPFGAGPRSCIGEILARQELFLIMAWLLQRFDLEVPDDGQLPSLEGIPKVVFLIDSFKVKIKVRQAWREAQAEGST
Briefly: Inhibition of human CYP17 expressed in African green monkey COS7 cells using 17-hydroxypregnenolone as substrate preincubated for 1 hr followed by substrate addition measured after 3 hrs by EIA. Format: cell-based.

Assay [4] concerns the target T5, Cytochrome P450 11B2, mitochondrial (Homo sapiens, UniProt P19099).
T5 sequence (P19099 whole entry): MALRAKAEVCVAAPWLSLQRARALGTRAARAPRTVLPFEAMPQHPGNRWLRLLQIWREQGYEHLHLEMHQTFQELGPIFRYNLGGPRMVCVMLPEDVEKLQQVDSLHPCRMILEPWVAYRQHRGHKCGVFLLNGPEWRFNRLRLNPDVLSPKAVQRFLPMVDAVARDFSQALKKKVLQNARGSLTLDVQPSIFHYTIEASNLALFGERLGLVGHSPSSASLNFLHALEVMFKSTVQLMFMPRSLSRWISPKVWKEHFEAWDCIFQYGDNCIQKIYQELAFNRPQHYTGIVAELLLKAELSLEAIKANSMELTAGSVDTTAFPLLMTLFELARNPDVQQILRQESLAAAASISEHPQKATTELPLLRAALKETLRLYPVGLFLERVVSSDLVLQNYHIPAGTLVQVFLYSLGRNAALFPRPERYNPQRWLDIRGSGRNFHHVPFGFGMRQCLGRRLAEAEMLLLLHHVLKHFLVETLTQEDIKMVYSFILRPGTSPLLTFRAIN
Briefly: Inhibition of human CYP11B2-CLE9 expressed in Chinese hamster V79 cells using 11-deoxycorticosterone as substrate preincubated for 1 hr followed by substrate addition measured for 3 hrs by HTRF assay. Format: cell-based.

Assay [5] is described as follows: Selectivity ratio of IC50 for human CYP11B1-8C7 expressed in Chinese hamster V79 cells to IC50 for human CYP11B2-CLE9 expressed in Chinese hamster V79 cells.
The next assay deals with T6, Steroid 21-hydroxylase (Homo sapiens, UniProt P08686).
T6 sequence (P08686 whole entry): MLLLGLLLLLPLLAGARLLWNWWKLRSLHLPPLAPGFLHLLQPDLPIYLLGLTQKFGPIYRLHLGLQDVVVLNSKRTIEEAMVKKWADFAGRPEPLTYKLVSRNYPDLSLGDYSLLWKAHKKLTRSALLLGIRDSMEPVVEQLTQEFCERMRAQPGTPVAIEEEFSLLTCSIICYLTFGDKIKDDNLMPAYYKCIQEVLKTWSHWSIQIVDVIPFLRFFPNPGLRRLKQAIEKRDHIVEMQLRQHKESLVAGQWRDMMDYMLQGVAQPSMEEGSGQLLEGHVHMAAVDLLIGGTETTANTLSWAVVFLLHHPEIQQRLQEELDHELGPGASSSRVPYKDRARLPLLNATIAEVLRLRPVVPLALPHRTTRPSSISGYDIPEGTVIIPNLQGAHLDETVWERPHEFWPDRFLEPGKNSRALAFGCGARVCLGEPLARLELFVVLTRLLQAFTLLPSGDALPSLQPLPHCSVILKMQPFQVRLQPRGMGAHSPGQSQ
Briefly: Inhibition of human CYP21 expressed in African green monkey COS7 cells using […] as substrate preincubated for 1 hr followed by substrate addition measured for 3 hrs by HTRF assay. Format: cell-based.

The target of a further assay is Cytochrome P450 2D6 (Homo sapiens, UniProt P10635). Briefly: Inhibition of hepatic CYP2D6 (unknown origin). Type of assay: ADME.
Chain of Cytochrome P450 2D6 (P10635 whole entry): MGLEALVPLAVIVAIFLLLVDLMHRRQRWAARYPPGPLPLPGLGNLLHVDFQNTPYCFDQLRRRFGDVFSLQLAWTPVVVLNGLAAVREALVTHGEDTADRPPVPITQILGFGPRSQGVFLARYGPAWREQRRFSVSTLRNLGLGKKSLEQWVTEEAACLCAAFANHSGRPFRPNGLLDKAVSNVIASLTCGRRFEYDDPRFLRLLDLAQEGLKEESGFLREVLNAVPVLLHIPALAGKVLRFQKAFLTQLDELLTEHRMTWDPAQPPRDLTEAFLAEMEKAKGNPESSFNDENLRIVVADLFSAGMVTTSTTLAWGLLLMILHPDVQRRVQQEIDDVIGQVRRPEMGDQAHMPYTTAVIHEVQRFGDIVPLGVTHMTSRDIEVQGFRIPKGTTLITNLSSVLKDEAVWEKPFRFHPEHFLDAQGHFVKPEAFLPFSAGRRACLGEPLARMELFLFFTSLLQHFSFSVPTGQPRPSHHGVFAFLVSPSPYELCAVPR
Another assay has as its target Cytochrome P450 2C9 (Homo sapiens, UniProt P11712). In words: Inhibition of hepatic CYP2C9 (unknown origin). Type of assay: ADME.

Chain of Cytochrome P450 2C9 (P11712 whole entry): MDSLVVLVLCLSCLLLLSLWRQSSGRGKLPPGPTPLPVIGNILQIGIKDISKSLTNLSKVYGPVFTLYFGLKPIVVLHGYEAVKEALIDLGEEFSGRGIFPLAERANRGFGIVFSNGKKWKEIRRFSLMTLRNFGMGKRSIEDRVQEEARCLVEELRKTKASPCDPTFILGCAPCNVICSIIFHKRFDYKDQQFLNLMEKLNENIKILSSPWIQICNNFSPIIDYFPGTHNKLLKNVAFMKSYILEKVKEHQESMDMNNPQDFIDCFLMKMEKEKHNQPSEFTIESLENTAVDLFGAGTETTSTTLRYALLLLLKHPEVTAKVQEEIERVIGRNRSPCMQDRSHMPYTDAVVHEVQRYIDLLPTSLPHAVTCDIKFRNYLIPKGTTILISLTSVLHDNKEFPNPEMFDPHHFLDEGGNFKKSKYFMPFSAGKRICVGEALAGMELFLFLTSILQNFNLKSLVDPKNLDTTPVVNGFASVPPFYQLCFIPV
Chain of Cytochrome P450 3A4 (P08684 whole entry): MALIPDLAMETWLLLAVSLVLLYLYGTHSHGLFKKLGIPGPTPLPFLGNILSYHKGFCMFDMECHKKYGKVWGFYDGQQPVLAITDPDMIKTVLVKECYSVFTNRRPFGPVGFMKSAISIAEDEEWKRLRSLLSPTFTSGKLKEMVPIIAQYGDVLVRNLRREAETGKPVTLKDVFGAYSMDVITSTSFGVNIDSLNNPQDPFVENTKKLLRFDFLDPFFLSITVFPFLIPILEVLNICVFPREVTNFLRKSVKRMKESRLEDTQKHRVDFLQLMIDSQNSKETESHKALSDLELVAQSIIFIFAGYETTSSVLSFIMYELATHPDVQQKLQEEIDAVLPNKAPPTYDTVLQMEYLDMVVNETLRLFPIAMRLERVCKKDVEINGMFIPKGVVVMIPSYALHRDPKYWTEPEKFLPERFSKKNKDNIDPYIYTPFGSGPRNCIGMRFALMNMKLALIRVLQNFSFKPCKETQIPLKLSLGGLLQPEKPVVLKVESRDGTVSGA

For `C[C@](O)(c1cncc(-n2nc(C(F)(F)F)c3ccccc32)c1)C(F)(F)F`, the IC50 was over 50 µM at Cytochrome P450 3A4; 0.856 to 0.86 µM in [1]; 5.4 µM at Aromatase; 0.077 µM in [2]; over 10 µM in assay [3]; 0.077 to 0.0774 µM in [4]. The IC50 against Steroid 21-hydroxylase was over 10 µM; against Cytochrome P450 2D6, over 50 µM; against Cytochrome P450 2C9, 7.2 µM. For the same molecule, the “Ratio IC50” value in assay [5] worked out at 11.
Turning to `Cc1nn(-c2cncc([C@@](C)(O)C(F)(F)F)c2)c2ccccc12`, the IC50 on Cytochrome P450 3A4 was over 50 µM; in assay [1] it was 0.386 to 0.39 µM; against Aromatase it was 6.2 µM; in assay [2] it was 0.033 µM; in assay [3], over 10 µM; in assay [4], 0.0329 to 0.033 µM. The IC50 was over 10 µM on Steroid 21-hydroxylase, over 50 µM on Cytochrome P450 2D6 and 3.8 µM on Cytochrome P450 2C9. For the same molecule, the “Ratio IC50” value in assay [5] came to 12.
In the case of `Cc1nn(-c2cncc([C@](C)(O)C(F)(F)F)c2)c2ccccc12`, the half-maximal inhibitory concentration (IC50) at Cytochrome P450 3A4 is over 50 µM; in assay [1], 0.338 to 0.34 µM; on Aromatase it was 6.3 µM; in assay [2], 0.014 µM; in [3] it was over 10 µM; in assay [4] it was 0.014 to 0.0143 µM. Further, the IC50 against Steroid 21-hydroxylase was over 10 µM; at Cytochrome P450 2D6, over 50 µM; on Cytochrome P450 2C9, 11 µM. Further, the “Ratio IC50” value in [5] came out at 24.
`Cc1nn(-c2cncc(C(C)(C)O)c2)c2cccc(F)c12`: the IC50 at Cytochrome P450 3A4 is over 50 µM; in [1] it was 0.022 to 0.0223 µM; at Aromatase it was 6.9 µM; in assay [2], 0.0013 µM; in assay [3], over 10 µM; in assay [4] it was 0.0013 to 0.00131 µM. In addition, the values for the IC50 against Steroid 21-hydroxylase, at Cytochrome P450 2D6 and against Cytochrome P450 2C9 were over 10 µM, over 50 µM and 4.7 µM, respectively. The “Ratio IC50” value in assay [5] is listed as 17.

As usually defined, the IC50 is the concentration that inhibits the measured activity by half.
